Measurements reported in the supplement of paper PMC5908809.

How the values were obtained:
[1] = tested on: IMC-1 (IL-2 20 ng/mL); assay: drug sensitivity score (DSS) (DSS units); higher = more sensitive; extreme values may be limits of the assay; settings: 72 h
[2] = tested on: SNK-6 (IL-2 2.5 ng/mL); assay: as above; settings: 72 h
[3] = tested on: KHYG-1 (IL-2 2.5 ng/mL); assay: as above; settings: 72 h
[4] = tested on: normal primary NK cells, pool 1 (3 donors) (IL-2 2.5 ng/mL); assay: as above; settings: 72 h
[5] = tested on: normal primary NK cells, pool 2 (3 donors) (IL-2 2.5 ng/mL); assay: as above; settings: 72 h
[6] = tested on: NKL (IL-2 2.5 ng/mL); assay: as above; settings: 72 h
[7] = tested on: KAI3 (IL-2 2.5 ng/mL); assay: as above; settings: 72 h
[8] = tested on: NK-YS (IL-2 2.5 ng/mL); assay: as above; settings: 72 h
[9] = tested on: DERL-7 (IL-2 2.5 ng/mL); assay: as above; settings: 72 h
[10] = tested on: normal primary NK cells, pool 3 (3 donors) (IL-2 2.5 ng/mL); assay: as above; settings: 72 h
[11] = tested on: YT (IL-2 2.5 ng/mL); assay: as above; settings: 72 h
[12] = tested on: NK-92 (IL-2 2.5 ng/mL); assay: as above; settings: 72 h
[13] = tested on: normal primary NK cells, pool 1 (3 donors), resting (IL-2 0 ng/mL); assay: as above; settings: 72 h
[14] = tested on: normal NK cells expanded with K562-aAPC; assay: percent inhibition of viability; higher = more inhibition; settings: 72 h, IL-2 2.5 ng/mL
Protocol: (§1)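 Drug sensitivity and resistance testing on K562-aAPC-expanded normal NK cells: 5 concentrations (10-fold steps over a 10,000-fold range), 72 h at 37 °C, viability by CellTiter-Glo normalised to DMSO and benzethonium chloride controls; DSS from the fitted curve.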

[15] = tested on: normal NK cells expanded with K562-aAPC; assay: drug sensitivity score (DSS) (DSS units); higher = more sensitive; extreme values may be limits of the assay; settings: 72 h; IL-2 2.5 ng/mL
Protocol: as §1

[16] = tested on: IMC-1 (IL-2 20 ng/mL); assay: percent inhibition of viability; higher = more inhibition; settings: 72 h
[17] = tested on: SNK-6 (IL-2 2.5 ng/mL); assay: as above; settings: 72 h
[18] = tested on: KHYG-1 (IL-2 2.5 ng/mL); assay: as above; settings: 72 h
[19] = tested on: normal primary NK cells, pool 1 (3 donors) (IL-2 2.5 ng/mL); assay: as above; settings: 72 h
[20] = tested on: normal primary NK cells, pool 2 (3 donors) (IL-2 2.5 ng/mL); assay: as above; settings: 72 h
[21] = tested on: NKL (IL-2 2.5 ng/mL); assay: as above; settings: 72 h
[22] = tested on: KAI3 (IL-2 2.5 ng/mL); assay: as above; settings: 72 h
[23] = tested on: NK-YS (IL-2 2.5 ng/mL); assay: as above; settings: 72 h
[24] = tested on: DERL-7 (IL-2 2.5 ng/mL); assay: as above; settings: 72 h
[25] = tested on: normal primary NK cells, pool 3 (3 donors) (IL-2 2.5 ng/mL); assay: as above; settings: 72 h
[26] = tested on: YT (IL-2 2.5 ng/mL); assay: as above; settings: 72 h
[27] = tested on: NK-92 (IL-2 2.5 ng/mL); assay: as above; settings: 72 h
[28] = tested on: normal primary NK cells, pool 1 (3 donors), resting (IL-2 0 ng/mL); assay: as above; settings: 72 h

C1=N/C2=N/c3ccc(OCCN4CCCC4)c(c3)COC/C=C/COCc3cccc(c3)C(=C1)N2 [Pacritinib] (max concentration tested 10000 nM)
Settings	drug sensitivity score
[1]	4.5
[2]	9.9
[3]	12.8
[4]	16.2
[5]	16.2
[6]	13.1
[7]	14.2
[8]	11.7
[9]	14.1
[10]	14.1
[11]	12.2
[12]	10.7
[13]	12.6
[15]	12.8

percent inhibition of viability [%]
Settings	1 nM	10 nM	100 nM	1000 nM	10000 nM
[14]	-2.28	-6.13	9.28	58.8	99.4
[16]	-5.72	-0.5	-10.2	-17.7	98.5
[17]	-2.06	1.27	-10.4	30.5	99.4
[18]	-2.5	-2.14	-0.78	61.7	102
[19]	2.77	-5.07	8.34	82.1	99.9
[20]	-8.58	0.56	8.47	82.3	95.9
[21]	-10.8	-10.3	-2.07	65.3	102
[22]	-4.38	0.97	8.91	68.1	102
[23]	-5.53	0.76	3.37	50.8	102
[24]	-0.5	3.08	13.1	64.9	99.9
[25]	-10.8	-10.8	0.28	75.3	98.7
[26]	-5.32	-0.86	-1.84	55.9	102
[27]	-16.4	-11.8	1.4	37.9	100
[28]	-8.26	-5.07	-1.15	60.6	99.4

O=[N+]([O-])c1ccc2c(c1)S(=O)(=O)C=C2 [Stattic] (max concentration tested 50000 nM)
Settings	drug sensitivity score
[1]	4.71
[2]	16.6
[3]	17.5
[4]	19.9
[5]	17.7
[6]	11.8
[7]	19.9
[8]	9.96
[9]	19.4
[10]	17.1
[11]	17.3
[12]	17.3
[13]	19.4
[15]	17.4

percent inhibition of viability [%]
Settings	5 nM	50 nM	500 nM	5000 nM	50000 nM
[14]	-4.23	-7.77	-7.3	100	100
[16]	-3.55	-2.13	-12.2	-14.1	99.9
[17]	4.25	-11.5	-24.7	100	100
[18]	-5.88	-5.42	-4.14	99.4	99.5
[19]	-14.2	-14	11.9	98.5	100
[20]	-5.68	1.61	1.47	96.5	99.9
[21]	-2.42	-9.08	-17.6	52.9	97.8
[22]	-6.42	3	11.7	101	100
[23]	-2.31	-3.08	-1.75	31.7	98.3
[24]	-5.69	0.09	8.66	100	100
[25]	-6.16	-7.86	-9.75	99.1	101
[26]	-7.41	-5.02	-6.62	99.5	99.9
[27]	-16.4	-10.7	-9.15	100	99.3
[28]	-24.1	-39.5	15.7	93.9	100

CC(C)C(=O)Nc1ccc([N+](=O)[O-])c(C(F)(F)F)c1 [Flutamide] (max concentration tested 10000 nM)
Settings	drug sensitivity score
[1]	0.02
[2]	0
[3]	0
[4]	0
[5]	0
[6]	0
[7]	0
[8]	0
[9]	0
[10]	0
[11]	1.25
[12]	2.07
[13]	0
[15]	0

percent inhibition of viability [%]
Settings	1 nM	10 nM	100 nM	1000 nM	10000 nM
[14]	-8.49	-7.43	-8.84	-8.3	-13.9
[16]	-0.8	-1.46	-1.68	-2.71	12.2
[17]	21.7	46.8	-5.11	31.3	24.2
[18]	-7.32	-1.75	-9.49	-4.37	-1.22
[19]	-3.89	-10.2	-4.34	-7.61	-4.01
[20]	7.09	-4.46	-3.61	-2.09	6.81
[21]	-6.29	8.8	-0.67	5.38	-13.1
[22]	-0.84	-1.39	-3.89	-2.15	-17.5
[23]	-0.08	-3.58	-2.41	-5.97	2.23
[24]	0.26	11.3	-2.83	6.87	2.11
[25]	-0.96	0.66	3.21	-0.91	1.69
[26]	-7.4	6	-4.1	6.56	19.1
[27]	-9.52	-2.4	-7.94	12.1	22.5
[28]	-8.17	-16.6	6.26	-12.5	8.25

CN1CCc2c(c3ccccc3n2Cc2ccc(C(=O)NO)cc2)C1 [Tubastatin A] (max concentration tested 10000 nM)
Settings	drug sensitivity score
[1]	4.57
[2]	5.42
[3]	4.58
[4]	5.39
[5]	3.66
[6]	8.2
[7]	9.51
[8]	4.55
[9]	3.03
[10]	1.21
[11]	5.09
[12]	8.57
[13]	7.58
[15]	4.5

percent inhibition of viability [%]
Settings	1 nM	10 nM	100 nM	1000 nM	10000 nM
[14]	-5.45	-1.84	-1.29	9.86	53.5
[16]	-3.32	-4.63	-0.4	-1.55	84.5
[17]	8.54	0.91	4.89	18.5	57
[18]	-2.63	-7.38	-2.24	5.2	68.8
[19]	7.05	12.2	16.9	13	63.5
[20]	-2.86	0.66	3.2	7.48	46.4
[21]	-6.98	-8.33	6.76	35.4	74.1
[22]	2.16	-0.84	7.18	38.8	90.5
[23]	-4.34	-5.38	-3.76	9.99	54.1
[24]	-3.55	1.06	-2.9	-2.52	60
[25]	-0.16	11.4	-0.85	-0.8	29.6
[26]	-0.87	-2.95	-0.96	6.63	72.9
[27]	-3.57	-14.2	-5.66	22.2	92.4
[28]	8.81	19.6	12	26.2	81.9

COc1cc(C(=O)NC2CCN(C)CC2)c(F)cc1Nc1ncc2c(n1)N(C1CCCC1)CC(F)(F)C(=O)N2C [TAK-960] (max concentration tested 2500 nM)
Settings	drug sensitivity score
[1]	0.63
[2]	13
[3]	0
[4]	0
[5]	0.16
[6]	0
[7]	0
[8]	0
[9]	0.89
[10]	0
[11]	0
[12]	0.18
[13]	0
[15]	0

percent inhibition of viability [%]
Settings	0.25 nM	2.5 nM	25 nM	250 nM	2500 nM
[14]	-3.09	0.01	0.41	9.42	8.37
[16]	-4.4	4.01	9.33	8.23	11.8
[17]	22.6	22	36.4	38	22.1
[18]	0.04	3.31	3.4	2.48	6.51
[19]	7.7	-2.83	-1.46	-9	3.2
[20]	-10.9	-4.09	10.7	0.25	13.6
[21]	-17.8	-2.17	0.04	4.31	2.51
[22]	-8.99	-1.96	-2.51	-1.54	2.64
[23]	-3.49	1.57	0.97	0.32	6.84
[24]	-1.39	-5.61	-0.81	-6.15	-11.4
[25]	-10.9	-5.87	7.99	-6.67	-0.88
[26]	1.09	0.71	8.79	0.43	6.32
[27]	-8.09	-7.71	9.2	-1.64	15.2
[28]	11.1	-6.28	-3.33	-13.8	-6.51
